Data set [1] has as its system Leishmania martiniquensis. Put plainly: Antileishmanial activity against Leishmania martiniquensis MHOM/MQ/92/MAR promastigote at 0.25 uM incubated for 72 hrs by resazurin dye based colorimetric assay relative to control. The format is functional. (Resazurin is reduced to fluorescent resorufin, in cell work by metabolically active cells.)
The test system of data set [2] is Leishmania martiniquensis. Kind of data set: Antileishmanial activity against Leishmania martiniquensis MHOM/MQ/92/MAR promastigote at 0.1 uM incubated for 72 hrs by resazurin dye based colorimetric assay relative to control. Format: functional.
Data set [3] concerns Leishmania orientalis. Kind of data set: Antileishmanial activity against Leishmania orientalis MHOM/TH/2010/PCM2 promastigote at 0.25 uM incubated for 72 hrs by resazurin dye based colorimetric assay relative to control. Format: functional.
Data set [4] deals with Leishmania martiniquensis. Kind of data set: Antileishmanial activity against Leishmania martiniquensis MHOM/MQ/92/MAR promastigote incubated for 72 hrs by resazurin dye based colorimetric assay. Format: functional, organism-based.
The test system of data set [5] is Leishmania orientalis. Kind of data set: Antileishmanial activity against Leishmania orientalis MHOM/TH/2010/PCM2 axenic amastigotes at 0.25 uM incubated for 72 hrs by resazurin dye based colorimetric assay relative to control. The format is functional.
Data set [6] relates to J774.A1. Put plainly: Cytotoxicity against mouse J774A.1 cells assessed as reduction in cell viability at 4.0 uM incubated for 72 hrs by colorimetric assay relative to control. Format: cell-based. The conditions noted are these: j774.a1, 72 h.
In data set [7] the test system is Leishmania martiniquensis. Kind of data set: Potency index, ratio of IC50 for miltefosine to IC50 for test compound for antileishmanial activity against Leishmania martiniquensis MHOM/MQ/92/MAR promastigote incubated for 72 hrs by resazurin dye based colorimetric assay. Format: functional.
The test system of data set [8] is Leishmania orientalis. Kind of data set: Antileishmanial activity against Leishmania orientalis MHOM/TH/2010/PCM2 axenic amastigotes incubated for 72 hrs by resazurin dye based colorimetric assay. The format is functional, organism-based.
The test system of data set [9] is Leishmania orientalis. Put plainly: Antileishmanial activity against Leishmania orientalis MHOM/TH/2010/PCM2 promastigote incubated for 72 hrs by resazurin dye based colorimetric assay. The format is functional, organism-based.
The subject of data set [10] is Leishmania orientalis. Put plainly: Antileishmanial activity against Leishmania orientalis MHOM/TH/2010/PCM2 promastigote at 0.1 uM incubated for 72 hrs by resazurin dye based colorimetric assay relative to control. The format is functional.
The subject of data set [11] is J774.A1. Put plainly: Cytotoxicity against mouse J774A.1 cells assessed as reduction in cell viability at 0.25 uM incubated for 72 hrs by colorimetric assay relative to control. The format is cell-based. The following applies: j774.a1, 72 h.

Usually IC50 stands for the midpoint of a concentration-inhibition curve.

On to `CCn1c(=O)/c(=C/C=C2\Sc3ccccc3N2C)s/c1=C\c1sc2ccc(F)cc2[n+]1C.[Cl-]`, for which the “inhibition (INH)” value in data set [1] came out at 89.3%; in [2] it was 82.8%; with Leishmania orientalis [3], 91.7%; with Leishmania orientalis [5], 86.5%; with Leishmania orientalis [10], 66.2%. For the same molecule, the results for the IC50 (in data set [4]; with Leishmania orientalis [8]; with Leishmania orientalis [9]) were 85 nM, 80 nM and 104 nM, respectively. Besides, the Activity in the data set on J774.A1 [6] is 26.9%; in the data set on J774.A1 [11], “Non-Toxic”. Besides, the “Ratio IC50” value in data set [7] was 200.

Source of the values: ChEMBL document CHEMBL4609989, “Synthesis and antileishmanial activity of fluorinated rhodacyanine analogues: The 'fluorine-walk' analysis” (Bioorg Med Chem, 2020).
